Test results published in publication PMC7407272, “Induction of Lysosome Membrane Permeabilization as a Therapeutic Strategy to Target Pancreatic Cancer Stem Cells” (Cancers, 2020).

Key:
[1] = tested on: PDAC1 xenografts; experiment: PDX treatment in nude mice; format: in vivo, NU-Foxn1nu nude mice
Protocol: (§1) Cells were analyzed with a 4-laser Attune NxT Acoustic Cytometer (ThermoFisher Scientific). Cells and digested tumors (as described in [41]) were resuspended in FLOW buffer (1X PBS; 3 mM EDTA (v/v); 3% FBS (v/v)), and the following fluorescently-tagged antibodies were used to label cells for 30 min at 4 °C: Mouse monoclonal anti-human CD133-PE (1:20, Cat no. 130-110-962, Miltenyi, Bergisch Gladbach, Germany), Mouse monoclonal anti-human CD133-APC (1:20, Cat no. 130-111-080, Miltenyi, Bergisch Gladbach, Germany), mouse monoclonal anti-human C-X-C chemokine receptor type 4- Phycoerythrin (CXCR4-PE) (1:20, Cat no. 130-117-354, Miltenyi, Bergisch Gladbach, Germany), or mouse monoclonal anti-human Epithelial cell adhesion molecule-fluorescein isothiocyanate (EpCAM-FITC) (1:20, Cat no. 130-111-115, Miltenyi, Bergisch Gladbach, Germany). Autofluorescent cells were excited with blue laser 488nm and selected as the intersection with the filters 530/40 and 580/30 as previously described. For lysosomes quantification, Acridine Orange (AO) (A1301, Thermo Fisher Scientific, Waltham, MA, USA) or Lysotracker Deep Red (DR) (L12492, Molecular probes, Life Technologies, Waltham, MA, USA) were used. AO fluorescence was assessed with two combinations of excitation and emission spectra: BL1 […] BL3 (Ex488/Em695/40, equal to the far-red channel (>670 nm)) Lysotracker DR fluorescence was assessed with RL1 (Ex638/Em670/14). Bafilomycin A1 (100 nM, Calbiochem, San Diego, CA, USA) was included as a positive control for lysosome disruption. For Annexin V staining, floating and attached cells were pooled and resuspended in 1× AnnexinV staining buffer containing AnnexinV-APC diluted 1:20 (Biotium, Freemont, CA, USA) and incubated for 20 min at room temperature prior to flow cytometric analysis. For all assays, DAPI was used to mark and exclude dead cells, and data were analyzed using the software FlowJo v9.3 (Tree Star Inc., Ashland, OR, USA).
(§2) Female 6- to 8-week-old NU-Foxn1nu nude mice (Envigo, Spain) were subcutaneously injected with control or pre-treated 1 × 10^4 PDAC cells in 50 µL of Matrigel^TM (Corning). Tumor growth was monitored bi-weekly for up to 10 weeks. For Siramesine experiments, mice were subcutaneously implanted with PDAC1 and PDAC3 PDXs. After 4 weeks of tumor growth, mice were randomized into treatment groups (5 mice per group). Mice were treated with Siramesine twice a week (30 mg/kg by oral gavage formulated in 0.5% methylcellulose 15 cP in 0.9% NaCl solution) for ~4 weeks. Gemcitabine (GEMZAR®, Eli Lilly, Indianapolis, IN, USA) was administered twice a week (125 mg/kg i.p.) for ~4 weeks. Tumor volumes (mm^3) were determined twice per week using a digital caliper. Mice were sacrificed at 24 days post treatment initiation and tumors were extracted and analyzed by flow cytometry as described above. For second generation tumor formation, 1000 and 100 cells of indicated treatment groups were resuspended in Matrigel ^TM and injected subcutaneously in recipient NU-Foxn1nu nude mice and tumor formation was monitored for 10 weeks. Mice were housed according to institutional guidelines and all experiments were performed in compliance with the institutional guidelines for the welfare of experimental animals approved by the Universidad Autónoma de Madrid Ethics Committee (CEI 60-1057-A068) or by the Instituto de Salud Carlos III Ethics Committee (CBA12_2014-v3) and La Comunidad de Madrid (PROEX 335/14 or PROEX 53/14) and in accordance with the guidelines for Ethical Conduct in the Care and Use of Animals as stated in The International Guiding Principles for Biomedical Research involving Animals, developed by the Council for International Organizations of Medical Sciences (CIOMS).

[2] = tested on: PDAC3 xenografts; experiment: PDX treatment in nude mice; format: in vivo, NU-Foxn1nu nude mice; conditions: PDAC3 PDX; GEM 125 mg/kg i.p. biweekly, SIR 30 mg/kg oral gavage; 23 days
Protocol: as §1, §2

[3] = tested on: sphere-derived PDAC2 cells; experiment: Tumor initiating capacity of pre-treated cells injected subcutaneously; format: in vivo, NU-Foxn1nu nude mice; conditions: cells treated 3 days with 0.1 µg/mL GEM or compound at 1.25 µM, then injected subcutaneously
Protocol: as §2

[4] = tested on: PDAC2 cultures; experiment: Sphere formation assay; format: cell-based, human; conditions: 0.1 µg/mL GEM or Cpd 1 at 1.25 or 2.5 µM
Excerpt: (§3) Pancreatic CSC spheres were generated as previously described in ultra-low attachment plates (Corning) using CSC media: serum-free DMEM/F12 medium (1:1; #21331-020; Gibco, Waltham, MA, USA), supplemented with Pen/Strep (1:100; #1500-063; Gibco, Waltham, MA, USA), Fungizone (1:250; #15290-018; Gibco), L-Glutamine (1:100; #25030-024; Gibco, Waltham, MA, USA), B-27 (1:50; #17504-044; Gibco, Waltham, MA, USA) and basic fibroblast growth factor (FGF-b) (1:5000; Gibco, Waltham, MA, USA). All cell culture was carried out at 37 °C in a 5% CO2 humidified incubator. To quantify spheres of > 40 μm, 1 mL of sample volume was analyzed with a CASY® Cell Counter (Roche Applied Sciences, Mannheim, Germany). The CASY® Cell Counter measuring principle is based on a capillary particle counter with pulse area analysis, that permits the determination of cell count, cell concentration, cell volume (peak), and average cell diameter, specifically diameters of 40–80 μm, 80–120 μm and >120 μm.

[5] = tested on: PDAC4 cultures; experiment: Sphere formation assay; format: cell-based, human; conditions: 0.1 µg/mL GEM or Cpd 1 at 1.25 or 2.5 µM
Excerpt: as §3

[6] = tested on: PDAC3 tumor cells; experiment: Second generation tumor formation (serial passage, ELDA); format: in vivo, NU-Foxn1nu nude mice
Protocol: as §2
(§4) Results are presented as means ± standard error of the mean (SEM) unless stated otherwise. An unpaired two-tailed t test was performed to determine significance. p values < 0.05 were considered statistically significant. All analyses were performed using GraphPad Prism version 6.0 (San Diego, California USA). CSC frequencies and significance were determined using the on-line extreme-limiting dilution assays (ELDA) program (http://bioinf.wehi.edu.au/software/elda/).

[7] = tested on: PDAC1 tumor cells; experiment: as above; format: in vivo, NU-Foxn1nu nude mice
Protocol: as §2, §4

[8] = tested on: PDAC4 3D spheres; experiment: Viability curves on PDAC4 3D spheres; format: cell-based, human; conditions: 30 h
Excerpt: The PDAC patient-derived xenograft (PDX) Panc354 (referred to hereafter as PDAC3) was obtained from Dr. Manuel Hidalgo under a Material Transfer Agreement with the Spanish National Cancer Centre (CNIO), Madrid, Spain (Reference no. I409181220BSMH). PDAC1, PDAC2 and PDAC4 PDXs were established from primary patient resected tumors. Samples were provided by the BioBank Hospital Ramón y Cajal-IRYCIS (PT13/0010/0002), integrated in the Spanish National Biobanks Network and they were processed following standard operating procedures with the appropriate approval of the Ethical and Scientific Committees (Control no. No. Control: DE-BIOB-73 AC65, RG.BIOB-96 REV, and CI-BIOB-08-10-01 rev), with informed consent and according to Declaration of Helsinki principles. Primary patient tumors were subcutaneously implanted in immunocompromised female 6- to 8-week-old NU-Foxn1nu nude mice (Envigo, Barcelona, Spain) and subsequently passage in vivo to establish PDX PDAC1, PDAC2 and PDAC4. Primary PDX-derived in vitro cultures were established as previously detailed. […]
Pancreatic CSC spheres were generated as previously described in ultra-low attachment plates (Corning) using CSC media: serum-free DMEM/F12 medium (1:1; #21331-020; Gibco, Waltham, MA, USA), supplemented with Pen/Strep (1:100; #1500-063; Gibco, Waltham, MA, USA), Fungizone (1:250; #15290-018; Gibco), L-Glutamine (1:100; #25030-024; Gibco, Waltham, MA, USA), B-27 (1:50; #17504-044; Gibco, Waltham, MA, USA) and basic fibroblast growth factor (FGF-b) (1:5000; Gibco, Waltham, MA, USA). […] To quantify spheres of > 40 μm, 1 mL of sample volume was analyzed with a CASY® Cell Counter (Roche Applied Sciences, Mannheim, Germany). […]

[9] = tested on: PDAC2 3D spheres; experiment: Viability curves on PDAC2 3D spheres; format: cell-based, human; conditions: Homo sapiens, PDAC-2, 30 h; read-out: EC50 (viability), PDAC2 spheres
Excerpt: The PDAC patient-derived xenograft (PDX) Panc354 (referred to hereafter as PDAC3) was obtained from Dr. Manuel Hidalgo under a Material Transfer Agreement with the Spanish National Cancer Centre (CNIO), Madrid, Spain (Reference no. I409181220BSMH). PDAC1, PDAC2 and PDAC4 PDXs were established from primary patient resected tumors. Samples were provided by the BioBank Hospital Ramón y Cajal-IRYCIS (PT13/0010/0002), integrated in the Spanish National Biobanks Network and they were processed following standard operating procedures with the appropriate approval of the Ethical and Scientific Committees (Control no. No. Control: DE-BIOB-73 AC65, RG.BIOB-96 REV, and CI-BIOB-08-10-01 rev), with informed consent and according to Declaration of Helsinki principles. Primary patient tumors were subcutaneously implanted in immunocompromised female 6- to 8-week-old NU-Foxn1nu nude mice (Envigo, Barcelona, Spain) and subsequently passage in vivo to establish PDX PDAC1, PDAC2 and PDAC4. Primary PDX-derived in vitro cultures were established as previously detailed. Briefly, xenografts were minced, enzymatically digested with collagenase (Stem Cell Technologies) for 60 min at 37 °C and after centrifugation for 5 min at 1800 rpm, the cell pellets were resuspended and cultured in RPMI (1:1; #61870-010; Gibco, Waltham, MA, USA) supplemented with 10% FBS (Invitrogen, Waltham, MA, USA), Pen/Strep (1:100; #1500-063; Gibco, Waltham, MA, USA), and Fungizone (1:250; #15290-018; Gibco, Waltham, MA, USA). Primary cultures were tested for Mycoplasma at least every 4 weeks.
as §3
Murine embryonic stem cells (mESCs) were plated at 20,000 cells per well in gelatinized 96 well plates. Compounds from the 640 compound ETP library were added by a Beckman FX 96 tip to achieve a final concentration of 5 µM in each well, and each compound was tested in duplicate. Cells were treated for a total of 30 h prior to assessing cell viability using CellTiter 96® AQueous One Solution Cell Proliferation Assay (MTS) assay according to manufacturer’s instructions (G3582, Promega, Madison, WI, USA). Dose response curves were carried out on mESCs under the same conditions using indicated compounds. To test the viability of CSCs, 10,000 PDAC cells were plated in spheroid conditions and immediately treated with indicated compounds and concentrations for the duration of the sphere formation assay. […]

[10] = mESC viability (MTS) screen and dose response; format: cell-based, mouse; conditions: mouse, mouse embryonic stem cells (mESCs), 5 µM, MTS
Protocol: (§5) Mouse embryonic stem cells were cultured in Dulbecco’s Modified Eagle Medium (DMEM) containing 15% Fetal bovine serum (FBS), non-essential amino acids (NEAA), 2-mercaptoethanol, and Leukemia inhibitory factor (LIF) and passaged on gelatinized plates under standard conditions.
(§6) Murine embryonic stem cells (mESCs) were plated at 20,000 cells per well in gelatinized 96 well plates. Compounds from the 640 compound ETP library were added by a Beckman FX 96 tip to achieve a final concentration of 5 µM in each well, and each compound was tested in duplicate. Cells were treated for a total of 30 h prior to assessing cell viability using CellTiter 96® AQueous One Solution Cell Proliferation Assay (MTS) assay according to manufacturer’s instructions (G3582, Promega, Madison, WI, USA). Dose response curves were carried out on mESCs under the same conditions using indicated compounds. To test the viability of CSCs, 10,000 PDAC cells were plated in spheroid conditions and immediately treated with indicated compounds and concentrations for the duration of the sphere formation assay. For adherent non-CSCs, 20,000 cells were plated in wells of standard tissue culture-treated plates (Corning, Corning, NY, USA) and treated the following day with indicated compounds and concentrations. For re-plated spheres (Figure S1B), 7-day-old spheres were filtered using a 40 µM filter (Fisher Scientific, Hampton, NH, USA), washed once with 1× PBS, and incubated with trypsin 0.05% EDTA at 37 °C (Thermo Fisher Scientific, Waltham, MA, USA) to achieve a single cell suspension (approximately 10–30 min, depending on the PDAC culture). Trypsinized cells were counted and 20,000 cells were plated in wells of standard tissue culture-treated plates (Corning) and treated the following day with indicated compounds and concentrations.

[11] = tested on: mouse embryonic stem cells (mESCs); experiment: mESC viability (MTS) screen and dose response; format: cell-based; conditions: Mus musculus, Embryonic stem cell, 30 h
Protocol: as §5, §6

SMILES: Nc1ccn([C@@H]2O[C@H](CO)[C@@H](O)C2(F)F)c(=O)n1 [gemcitabine]
- tumor volume versus control ([1]; PDAC1 PDX, GEM 125 mg/kg i.p. biweekly, SIR 30 mg/kg oral gavage, 23 days): significantly reduced
- autofluorescent-positive cells in tumors ([1]; PDAC1 tumors, day 23, flow cytometry): marked increase
- tumor volume versus control [2]: significantly reduced
- tumor formation / growth from pre-treated cells [3]: gave rise to larger tumors
- sphere-forming capacity [4]: did not affect sphere formation
- sphere-forming capacity [5]: increased
- CSC freq ([6]; PDAC3, Extreme Limiting Dilution Analysis, listed as GEM): 1/102
- Tumors/n (2nd generation) ([6]; PDAC3, no. cells 10^2): 5/8
- Tumors/n (2nd generation) ([6]; PDAC3, no. cells 10^3): 8/8
- CSC freq ([7]; PDAC1, Extreme Limiting Dilution Analysis, listed as GEM): 1/272
- Tumors/n (2nd generation) ([7]; PDAC1, no. cells 10^2): 5/8
- Tumors/n (2nd generation) ([7]; PDAC1, no. cells 10^3): 7/8

SMILES: C#CCCC1(CC(=O)N2CCC(CNc3ccc4ncc(C(=O)Nc5cccc(OC(F)(F)F)c5)n4n3)CC2)N=N1 [Cpd 26, 6-({1-[2-(3-But-3-ynyl-3H-diazirin-3-yl)-acetyl]-piperidin-4-ylmethyl}-amino)-imidazo[1,2-b]pyridazine-3-carboxylic acid (3-trifluoromethoxy-phenyl)-amide]
- effect on PDAC4 CSC viability [8]: inactive

SMILES: OC(c1cc(C(F)(F)F)nc2c(C(F)(F)F)cccc12)C1CCCCN1 (centres unmarked) [mefloquine, reference compound]
- EC50 [9]: 7600 nM

SMILES: O=C(Nc1cccc(OC(F)(F)F)c1)c1cnc2ccc(N3CCCC4(CCNCC4)C3)nn12 [Cpd 3]
- viability at 30 h, 5 µM [10]: 9%
- EC50 [11]: 1500 nM

SMILES: C#CCCC1(CCN2CCC(CNc3ccc4ncc(C(=O)Nc5cccc(OC(F)(F)F)c5)n4n3)CC2)N=N1 [Cpd 25, 6-({1-[2-(3-But-3-ynyl-3H-diazirin-3-yl)-ethyl]-piperidin-4-ylmethyl}-amino)-imidazo [1,2-b]pyridazine-3-carboxylic acid (3-trifluoromethoxy-phenyl)-amide]
- EC50 ([8]; Homo sapiens): 2620 nM
